Assay results as given in US7589087B2 (Janssen Pharmaceutica, N.V., priority 2006, dated 2009).
Counter-ions that a name gives are not always drawn.

Target: T1, human histamine H4 receptor (Homo sapiens, UniProt Q9H3N8)
T1 construct: expressed in transfected cells; host or cells: SK-N-MC cells or COS7 cells, transiently transfected; membranes prepared
Test: Binding Assay on Recombinant Human Histamine H4 Receptor (3H-histamine competition, membranes of transfected SK-N-MC or COS7 cells); further: ligand 5 nM
Protocol: SK-N-MC cells or COS7 cells were transiently transfected with pH4R and grown in 150 cm^2 tissue culture dishes. Cells were washed with saline solution, scraped with a cell scraper and collected by centrifugation (1000 rpm, 5 min). Cell membranes were prepared by homogenization of the cell pellet in 20 mM Tris-HCl with a polytron tissue homogenizer for 10 sec at high speed. Homogenate was centrifuged at 1000 rpm for 5 min at 4° C. The supernatant was then collected and centrifuged at 20,000×g for 25 min at 4° C. The final pellet was resuspended in 50 mM Tris-HCl. […] Incubation occurred at room temperature for 45 min. Membranes were harvested by rapid filtration over Whatman GF/C filters and washed 4 times with ice-cold 50 mM Tris HCl. Filters were then dried, mixed with scintillant and counted for radioactivity.

T1 sequence (Q9H3N8 whole entry): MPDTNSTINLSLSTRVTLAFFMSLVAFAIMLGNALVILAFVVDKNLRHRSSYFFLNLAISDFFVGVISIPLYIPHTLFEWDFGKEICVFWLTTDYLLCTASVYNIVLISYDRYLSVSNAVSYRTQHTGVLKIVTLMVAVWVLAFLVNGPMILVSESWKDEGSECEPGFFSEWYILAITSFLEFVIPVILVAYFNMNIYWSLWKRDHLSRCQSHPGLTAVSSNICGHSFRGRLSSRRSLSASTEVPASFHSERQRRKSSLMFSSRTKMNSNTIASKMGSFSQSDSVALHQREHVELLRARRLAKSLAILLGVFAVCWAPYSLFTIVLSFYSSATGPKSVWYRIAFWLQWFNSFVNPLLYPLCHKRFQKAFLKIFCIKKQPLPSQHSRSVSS

First: COc1ccc2[nH]c(-c3ccc(NCCCC4CCN(C)CC4)nc3)nc2c1 [Example 7, [5-(5-Methoxy-1H-benzoimidazol-2-yl)-pyridin-2-yl]-[3-(1-methyl-piperidin-4-yl)-propyl]-amine]
Second: CN1CCC(CCCNc2ccc(-c3nc4cc(Cl)ccc4[nH]3)cn2)CC1 [Example 3, [5-(5-Chloro-1H-benzoimidazol-2-yl)-pyridin-2-yl]-[3-(1-methyl-piperidin-4-yl)-propyl]-amine]
The Ki of the first is 83-fold higher: 500 nM for the first, 6 nM for the second.

First: Cc1cc(C)c2nc(-c3ccnc(N(C)CCCCC4CCN(C)CC4)c3)[nH]c2c1 [Example 14, [4-(4,6-Dimethyl-1H-benzoimidazol-2-yl)-pyridin-2-yl]-methyl-[4-(1-methyl-piperidin-4-yl)-butyl]-amine hydrochloride salt]
Second: Cc1cc(C)c2nc(-c3ccc(N(C)CCCC4CCN(C)CC4)nc3)[nH]c2c1 [Example 1, [5-(4,6-Dimethyl-1H-benzoimidazol-2-yl)-pyridin-2-yl]-methyl-[3-(1-methyl-piperidin-4-yl)-propyl]-amine]
The Ki of the first is 3.3-fold higher: 40 nM for the first, 12 nM for the second.

First: Cc1c(F)ccc2[nH]c(-c3ccc(NCCCC4CCN(C)CC4)nc3)nc12 [Example 5, [5-(5-Fluoro-4-methyl-1H-benzoimidazol-2-yl)-pyridin-2-yl]-[3-(1-methyl-piperidin-4-yl)-propyl]-amine]
Second: Cc1ccc2[nH]c(-c3ccc(NCCCC4CCN(C)CC4)nc3)nc2c1C [Example 25, [5-(4,5-Dimethyl-1H-benzoimidazol-2-yl)-pyridin-2-yl]-[3-(1-methyl-piperidin-4-yl)-propyl]-amine]
The Ki of the first is 1.8-fold lower: 33 nM for the first, 58 nM for the second.

Going from Cc1cccc2[nH]c(-c3ccc(NCCCC4CCN(C)CC4)nc3)nc12 [Example 23, [5-(4-Methyl-1H-benzoimidazol-2-yl)-pyridin-2-yl]-[3-(1-methyl-piperidin-4-yl)-propyl]-amine] to CN1CCC(CCCNc2ccc(-c3nc4c(Cl)cccc4[nH]3)cn2)CC1 [Example 31, [5-(4-Chloro-1H-benzoimidazol-2-yl)-pyridin-2-yl]-[3-(1-methyl-piperidin-4-yl)-propyl]-amine], the Ki rises from 240 nM to 2670 nM (11-fold). The first binds more tightly here.

Going from Cc1c(F)ccc2[nH]c(-c3ccnc(NCCCCN4CCCN(C)CC4)c3)nc12 [Example 19, [4-(5-Fluoro-4-methyl-1H-benzoimidazol-2-yl)-pyridin-2-yl]-[4-(4-methyl-[1,4]diazepan-1-yl)-butyl]-amine] to Cc1c(F)ccc2[nH]c(-c3ccnc(NCCCCC4CCN(C)CC4)c3)nc12 [Example 16, [4-(5-Fluoro-4-methyl-1H-benzoimidzol-2-yl)-pyridin-2-yl]-[4-(1-methyl-piperidin-4-yl)-butyl]-amine], the Ki falls from 5 nM to 2 nM (2.5-fold).

CC(C)N(CCCN1CCN(C)CC1)c1ccc(-c2nc3cc(Cl)ccc3[nH]2)cn1 [Example 34, [5-(5-Chloro-1H-benzoimidazol-2-yl)-pyridin-2-yl]-isopropyl-[3-(4-methyl-piperazin-1-yl)-propyl]-amine] and Cc1c(F)ccc2[nH]c(-c3ccc(N(CCCC4CCN(C)CC4)C(C)C)nc3)nc12 [Example 13, [5-(5-Fluoro-4-methyl-1H-benzoimidazol-2-yl)-pyridin-2-yl]-isopropyl-[3-(1-methyl-piperidin-4-yl)-propyl]-amine] are within 1.5-fold of each other in Ki: 570 nM for the first, 730 nM for the second.

Going from Cc1ccc2[nH]c(-c3ccc(N(CCCC4CCN(C)CC4)C(C)C)nc3)nc2c1C [Example 37, [5-(4,5-Dimethyl-1H-benzoimidazol-2-yl)-pyridin-2-yl]-isopropyl-[3-(1-methyl-piperidin-4-yl)-propyl]-amine] to Cc1ccc2[nH]c(-c3ccc(N(C)CCCC4CCN(C)CC4)nc3)nc2c1C [Example 27, [5-(4,5-Dimethyl-1H-benzoimidazol-2-yl)-pyridin-2-yl]-methyl-[3-(1-methyl-piperidin-4-yl)-propyl]-amine], the Ki falls from 3470 nM to 72 nM (48-fold).

Going from Cc1cc(C)c2nc(-c3ccnc(NC(=O)CCCC4CCN(C)CC4)c3)[nH]c2c1 [Example 21, N-[4-(4,6-Dimethyl-1H-benzoimidazol-2-yl)-pyridin-2-yl]-4-(1-methyl-piperidin-4-yl)-butyramide] to Cc1ccc2[nH]c(-c3ccnc(NC(=O)CCCC4CCN(C)CC4)c3)nc2c1C [Example 35, N-[4-(4,5-Dimethyl-1H-benzoimidazol-2-yl)-pyridin-2-yl]-4-(1-methyl-piperidin-4-yl)-butyramide], the Ki rises from 290 nM to 470 nM (1.6-fold). The first binds more tightly here.

Compared with CN1CCC(CCCNc2ccc(-c3nc4cc(C(=O)c5ccccc5)ccc4[nH]3)cn2)CC1 [Example 30, (2-{6-[3-(1-Methyl-piperidin-4-yl)-propylamino]-pyridin-3-yl}-1H-benzoimidazol-5-yl)-phenyl-methanone], COC(=O)c1ccc2[nH]c(-c3ccc(NCCCC4CCN(C)CC4)nc3)nc2c1 [Example 8, 2-{6-[3-(1-Methyl-piperidin-4-yl)-propylamino]-pyridin-3-yl}-1H-benzoimidazole-5-carboxylic acid methyl ester] is 3.1-fold higher in Ki: 520 nM for the first, 1590 nM for the second. The first binds more tightly here.

Cc1cc(C)c2nc(-c3ccc(NCCCC4CCN(C)CC4)nc3)[nH]c2c1 [Example 24, [5-(4,6-Dimethyl-1H-benzoimidazol-2-yl)-pyridin-2-yl]-[3-(1-methyl-piperidin-4-yl)-propyl]-amine] and Cc1cc(Cl)cc2[nH]c(-c3ccc(NCCCC4CCN(C)CC4)nc3)nc12 [Example 6, [5-(6-Chloro-4-methyl-1H-benzoimidazol-2-yl)-pyridin-2-yl]-[3-(1-methyl-piperidin-4-yl)-propyl]-amine] are within 1.5-fold of each other in Ki: 23 nM for the first, 16 nM for the second.

Compared with Cc1c(F)ccc2[nH]c(-c3ccc(NCCCN4CCN(C)CC4)nc3)nc12 [Example 10, [5-(5-Fluoro-4-methyl-1H-benzoimidazol-2-yl)-pyridin-2-yl]-[3-(4-methyl-piperazin-1-yl)-propyl]-amine], Cc1cc(Cl)cc2[nH]c(-c3ccc(NCCCN4CCN(C)CC4)nc3)nc12 [Example 9, [5-(6-Chloro-4-methyl-1H-benzoimidazol-2-yl)-pyridin-2-yl]-[3-(4-methyl-piperazin-1-yl)-propyl]-amine] is 2.7-fold lower in Ki: 930 nM for the first, 350 nM for the second. The second binds more tightly here.

Going from Cc1cc(C)c2nc(-c3ccc(NCCCN4CCN(C)CC4)nc3)[nH]c2c1 [Example 33, [5-(4,6-Dimethyl-1H-benzoimidazol-2-yl)-pyridin-2-yl]-[3-(4-methyl-piperazin-1-yl)-propyl]-amine] to Cc1cc(C)c2nc(-c3ccnc(NCCCCC4CCN(C)CC4)c3)[nH]c2c1 [Example 18, [4-(4,6-Dimethyl-1H-benzoimidazol-2-yl)-pyridin-2-yl]-[4-(1-methyl-piperidin-4-yl)-butyl]-amine], the Ki falls from 680 nM to 2 nM (340-fold).

First: Cc1c(F)ccc2[nH]c(-c3ccc(N(C)CCCC4CCN(C)CC4)nc3)nc12 [Example 2, [5-(5-Fluoro-4-methyl-1H-benzoimidazol-2-yl)-pyridin-2-yl]-methyl-[3-(1-methyl-piperidin-4-yl)-propyl]-amine]
Second: CN1CCC(CCCN(C)c2ccc(-c3nc4c(F)c(F)ccc4[nH]3)cn2)CC1 [Example 28, [5-(4,5-Difluoro-1H-benzoimidazol-2-yl)-pyridin-2-yl]-methyl-[3-(1-methyl-piperidin-4-yl)-propyl]-amine]
The Ki of the first is 2.5-fold lower: 15 nM for the first, 37 nM for the second. The first binds more tightly here.

Compared with COC(=O)c1ccc2[nH]c(-c3ccc(N(C)CCCC4CCN(C)CC4)nc3)nc2c1 [Example 22, 2-(6-{Methyl-[3-(1-methyl-piperidin-4-yl)-propyl]-amino}-pyridin-3-yl)-1H-benzoimidazole-5-carboxylic acid methyl ester], CN1CCC(CCCNc2ccc(-c3nc4cc(F)ccc4[nH]3)cn2)CC1 [Example 32, [5-(5-Fluoro-1H-benzoimidazol-2-yl)-pyridin-2-yl]-[3-(1-methyl-piperidin-4-yl)-propyl]-amine] is 10-fold lower in Ki: 420 nM for the first, 41 nM for the second. The second binds more tightly here.

Going from Cc1cccc2[nH]c(-c3ccnc(NC(=O)CCCC4CCN(C)CC4)c3)nc12 [Example 38, N-[4-(4-Methyl-1H-benzoimidazol-2-yl)-pyridin-2-yl]-4-(1-methyl-piperidin-4-yl)-butyramide] to Cc1c(F)ccc2[nH]c(-c3ccnc(NC(=O)CCCC4CCN(C)CC4)c3)nc12 [Example 20, N-[4-(5-Fluoro-4-methyl-1H-benzoimidazol-2-yl)-pyridin-2-yl]-4-(1-methyl-piperidin-4-yl)-butyramide], the Ki falls from 3330 nM to 250 nM (13-fold).

CN1CCC(CCCNc2ccc(-c3nc4cc(C(C)(C)C)ccc4[nH]3)cn2)CC1 [Example 4, [5-(5-tert-Butyl-1H-benzoimidazol-2-yl)-pyridin-2-yl]-[3-(1-methyl-piperidin-4-yl)-propyl]-amine] and CN1CCC(CCCNc2ccc(-c3nc4cc(Cl)c(F)cc4[nH]3)cn2)CC1 [Example 26, [5-(5-Chloro-6-fluoro-1H-benzoimidazol-2-yl)-pyridin-2-yl]-[3-(1-methyl-piperidin-4-yl)-propyl]-amine] are within 1.5-fold of each other in Ki: 9 nM for the first, 13 nM for the second.

Going from Cc1cc(Cl)cc2[nH]c(-c3ccnc(NCCCCC4CCN(C)CC4)c3)nc12 [Example 17, [4-(6-Chloro-4-methyl-1H-benzoimidazol-2-yl)-pyridin-2-yl]-[4-(1-methyl-piperidin-4-yl)-butyl]-amine] to CN1CCC(CCCC(=O)Nc2cc(-c3nc4cc(Cl)ccc4[nH]3)ccn2)CC1 [Example 36, N-[4-(5-Chloro-1H-benzoimidazol-2-yl)-pyridin-2-yl]-4-(1-methyl-piperidin-4-yl)-butyramide], the Ki rises from 8 nM to 660 nM (82-fold).

Cc1cc(-c2nc3c(F)c(F)ccc3[nH]2)cnc1NCCCC1CCN(C)CC1 [Example 12, [5-(4,5-Difluoro-1H-benzoimidazol-2-yl)-3-methyl-pyridin-2-yl]-[3-(1-methyl-piperidin-4-yl)-propyl]-amine] showed a Ki of 78 nM.
